These results are taken from ChEMBL document CHEMBL1142782, “Inhibition of tumor cell proliferation by thieno[2,3-d]pyrimidin-4(1H)-one-based analogs” (Bioorg Med Chem Lett, 2005).

As a reminder, the IC50 is the concentration at which inhibition is half-maximal. A lower IC50 goes with greater potency in that assay.

The subject of assay [1] is HT-29. The experiment in a line: Inhibitory concentration against human colon tumor cell line HT-29. Type of assay: functional, cell-based.
Assay [2] has as its target Cyclin-dependent kinase inhibitor 1 (Homo sapiens) (UniProt P38936). The experiment in a line: Selectivity ratio between p21(-/-) and p21(+/+) isogenic cell lines. It counts as functional.
The subject of assay [3] is SW-620. The experiment in a line: Inhibitory concentration against human colon tumor cell line SW620. Type of assay: functional, cell-based.
Assay [4] has as its system DLD-1. The experiment in a line: Inhibitory concentration against human colon tumor cell line DLD1. Type of assay: functional, cell-based.
For assay [5], the system named is LoVo. The experiment in a line: Inhibitory concentration against human colon tumor cell line LoVo. It counts as functional, cell-based.

Cyclin-dependent kinase inhibitor 1 (Homo sapiens), sequence (P38936 whole entry): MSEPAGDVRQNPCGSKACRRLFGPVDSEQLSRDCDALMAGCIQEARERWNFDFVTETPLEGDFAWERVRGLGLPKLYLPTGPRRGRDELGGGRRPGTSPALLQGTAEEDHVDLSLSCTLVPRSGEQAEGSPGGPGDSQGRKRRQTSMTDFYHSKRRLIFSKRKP

Consider `CCOc1ccc(-c2nc(O)c3c4c(sc3n2)CCCC4)cc1`, for which the 50% inhibitory concentration (IC50) in assay [1] is 5000 nM; in assay [3], 5000 nM; in assay [4] it was 4600 nM; in assay [5], 2600 nM. The Ratio in assay [2] is greater than 2.4.
Consider `COc1ccc(-c2nc(O)c3c4c(sc3n2)CCC4)cc1`, for which the concentration for half-maximal inhibition (IC50) in assay [1] is 330 nM; in assay [3], 230 nM; in assay [4], 290 nM; in assay [5] it was 150 nM. Further, the Ratio in assay [2] was determined as 8.3.
For `COc1cc(-c2nc(O)c3c4c(sc3n2)CCC4)cc(OC)c1OC` the same measures were 300 nM, 190 nM, 260 nM, 130 nM and greater than 5.8.
For `COc1cc(-c2nc(O)c3c4c(sc3n2)CCCC4)cc(OC)c1OC` the same measures were 240 nM, 190 nM, 280 nM, 140 nM and greater than 8.7.
For `O=C(c1cccs1)c1cnn2c(-c3cccc(NC(=O)C4CC4)c3)ccnc12`, in assay [2], the Ratio was 30.
In the case of `CSc1ccc(-c2nc(O)c3c4c(sc3n2)CCCC4)cc1`, the IC50 in assay [1] amounted to 1000 nM; in assay [3] it was 800 nM; in assay [4] it was 890 nM; in assay [5], 430 nM. For the same molecule, the Ratio in assay [2] was greater than 4.9.
For `COc1ccc(-c2nc(O)c3c4c(sc3n2)CCCC4)c(F)c1` the same measures were 420 nM, 420 nM, 220 nM, 460 nM and 19.
For `COc1cc(-c2nc(O)c3c4c(sc3n2)CCCCC4)cc(OC)c1OC` the same measures were 450 nM, 220 nM, 350 nM, 170 nM and 8.7.
Turning to `COc1ccc(-c2nc(O)c3c4c(sc3n2)CCCC4)cc1`, the IC50 was 330 nM in assay [1], 230 nM in assay [3], 290 nM in assay [4] and 150 nM in assay [5]. For the same molecule, the Ratio in assay [2] was greater than 8.5.
